Where two headings read alike, the source gives them in different places.
How the values were obtained:
NanHGH33 [1] = molecular target: T1, NanHGH33 (Clostridium perfringens, UniProt P10481); type: biochemical; details: pH 4.5
NanIGH33 [2] = molecular target: T2, NanIGH33 (Clostridium perfringens, UniProt Q59310); type: biochemical; details: pH 4.5
NanJGH33 [3] = molecular target: T3, NanJGH33 (Clostridium perfringens, UniProt A0A0H2YT71); type: biochemical; details: pH 4.5
NanHGH33 [4] = molecular target: T1, NanHGH33; assay: biochemical; type: biochemical
NanIGH33 [5] = molecular target: T2, NanIGH33; assay: biochemical; type: biochemical
NanJGH33 [6] = molecular target: T3, NanJGH33; assay: biochemical; type: biochemical
C. perfringens CP1 = type: cell-based, Clostridium perfringens; details: for Doubling Time: without DANA 0.762; for k (rate constant) of exponential growth: without DANA 0.909 ± 0.098
NanHGH33 [7] = molecular target: T1, NanHGH33; type: biochemical
NanIGH33 [8] = molecular target: T2, NanIGH33; type: biochemical
NanJGH33 [9] = molecular target: T3, NanJGH33; type: biochemical

T3 sequence (A0A0H2YT71 373-820 limits assumed): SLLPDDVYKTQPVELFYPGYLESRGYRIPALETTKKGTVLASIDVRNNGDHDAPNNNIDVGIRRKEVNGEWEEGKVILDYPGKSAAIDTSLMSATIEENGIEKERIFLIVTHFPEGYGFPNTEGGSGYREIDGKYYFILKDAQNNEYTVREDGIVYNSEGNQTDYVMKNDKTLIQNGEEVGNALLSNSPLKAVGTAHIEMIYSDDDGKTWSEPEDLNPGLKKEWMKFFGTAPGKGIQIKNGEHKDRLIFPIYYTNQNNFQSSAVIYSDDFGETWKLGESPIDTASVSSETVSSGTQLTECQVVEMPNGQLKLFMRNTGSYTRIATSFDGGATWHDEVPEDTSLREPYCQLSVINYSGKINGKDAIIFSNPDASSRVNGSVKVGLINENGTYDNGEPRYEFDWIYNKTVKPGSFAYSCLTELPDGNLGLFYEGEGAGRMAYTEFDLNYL
T2 sequence (Q59310 243-694 limits assumed): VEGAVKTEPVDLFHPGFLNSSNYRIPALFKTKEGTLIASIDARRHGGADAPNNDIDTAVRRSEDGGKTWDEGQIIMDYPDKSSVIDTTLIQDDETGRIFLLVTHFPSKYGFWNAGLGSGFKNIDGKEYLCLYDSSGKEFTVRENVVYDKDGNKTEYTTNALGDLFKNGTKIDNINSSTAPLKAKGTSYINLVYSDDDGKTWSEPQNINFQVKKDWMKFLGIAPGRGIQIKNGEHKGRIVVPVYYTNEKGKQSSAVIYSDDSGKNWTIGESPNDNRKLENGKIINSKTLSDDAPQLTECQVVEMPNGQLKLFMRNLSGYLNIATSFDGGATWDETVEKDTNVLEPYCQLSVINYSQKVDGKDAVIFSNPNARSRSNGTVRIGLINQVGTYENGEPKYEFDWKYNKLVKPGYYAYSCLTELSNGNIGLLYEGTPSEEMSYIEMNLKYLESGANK
T1 sequence (P10481 whole entry, looked up): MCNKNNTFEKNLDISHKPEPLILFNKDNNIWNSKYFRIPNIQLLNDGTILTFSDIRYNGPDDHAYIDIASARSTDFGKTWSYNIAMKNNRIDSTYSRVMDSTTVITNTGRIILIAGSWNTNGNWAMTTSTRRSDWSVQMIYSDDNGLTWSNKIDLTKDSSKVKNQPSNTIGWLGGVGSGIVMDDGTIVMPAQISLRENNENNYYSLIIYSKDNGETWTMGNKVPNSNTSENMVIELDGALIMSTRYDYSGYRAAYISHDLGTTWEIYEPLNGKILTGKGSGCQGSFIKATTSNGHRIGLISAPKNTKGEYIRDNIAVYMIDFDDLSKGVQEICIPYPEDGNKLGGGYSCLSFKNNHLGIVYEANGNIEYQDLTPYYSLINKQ

Q: What does the source list for `CC(=O)N[C@H]1[C@H]([C@H](O)[C@H](O)CO)O[C@@](O[C@H]2[C@@H](O)[C@@H](CO)O[C@@H](O[C@H]3[C@H](O)[C@@H](O)C(O)O[C@@H]3CO)[C@@H]2O)(C(=O)O)C[C@@H]1O` (stereo partly drawn) [3′-SL, 3′-sialyllactose]?
A: hydrolysis of substrate in competition assay (in words) (NanHGH33 [1]): hydrolyzed; hydrolysis of substrate in competition assay (in words) (NanIGH33 [2]): roughly equal rates; hydrolysis of substrate in competition assay (in words) (NanJGH33 [3]): processed both substrates very rapidly

Q: Which “hydrolysis of substrate in competition assay (in words)” value (from here on “hydrolysis of substrate”) (NanHGH33 [1]) does the source give for `CC(=O)N[C@H]1[C@H]([C@H](O)[C@H](O)CO)O[C@@](OC[C@H]2O[C@@H](O[C@H]3[C@H](O)[C@@H](O)[C@H](O)O[C@@H]3CO)[C@H](O)[C@@H](O)[C@H]2O)(C(=O)O)C[C@@H]1O` [6′-SL, 6′-sialyllactose] here?
A: did not show any significant capacity to hydrolyze

Q: What about the “hydrolysis of substrate” value (NanIGH33 [2]) of the same molecule?
A: roughly equal rates

Q: And the “hydrolysis of substrate” value (NanJGH33 [3])?
A: processed both substrates very rapidly

Q: With `CC(=O)N[C@H]1[C@H]([C@H](O)[C@H](O)CO)OC(C(=O)O)=C[C@@H]1O` [DANA, N-acetyl-2,3-dehydro-2-deoxyneuraminic acid] as the molecule, how does the Ki (NanHGH33 [4]; pH 7, read-out: Ki) read?
A: 33.9 ± 4.4 µM

Q: And the Ki (NanIGH33 [5]; pH 6.5, read-out: Ki)?
A: 3.1 ± 0.5 µM

Q: What about the Ki (NanJGH33 [6]; pH 6.8, read-out: Ki) of the same molecule?
A: 3.2 ± 0.3 µM

Q: What about the “effect on growth of C. perfringens in the presence of 3′SL” value (C. perfringens CP1; 0.5% 3′SL as substrate, 1 mM DANA required for a clear effect) of the same molecule?
A: reduce the growth

Q: What about the “Doubling Time” value (C. perfringens CP1; 3'SL + 0.01 mM DANA) of the same molecule?
A: 0.571 h

Q: And the “k (rate constant) of exponential growth” value (C. perfringens CP1; 3'SL + 0.01 mM DANA)?
A: 1.214 ± 0.085

Q: What about the “Doubling Time” value (C. perfringens CP1; 3'SL + 0.1 mM DANA) of the same molecule?
A: 0.576 h

Q: And the “k (rate constant) of exponential growth” value (C. perfringens CP1; 3'SL + 0.1 mM DANA)?
A: 1.202 ± 0.066

Q: And the “Doubling Time” value (C. perfringens CP1; 3'SL + 1 mM DANA)?
A: 1.725 h

Q: What about the “k (rate constant) of exponential growth” value (C. perfringens CP1; 3'SL + 1 mM DANA) of the same molecule?
A: 0.402 ± 0.019

Q: What about the “effect on C. perfringens consumption of 3′-SL” value (C. perfringens CP1; 24 h culture supernatants, HPAEC-PAD quantification) of the same molecule?
A: protect against C. perfringens consumption of 3′-SL

Q: What about the “reduction of growth of C. perfringens with glucose as the sole carbohydrate source” value (C. perfringens CP1; glucose as sole carbohydrate source, data not shown) of the same molecule?
A: not

Q: What about the “lactose released from 3′- and 6′-SL in the presence of inhibitor” value (“lactose released … of inhibitor” below) (NanHGH33 [7]) of the same molecule?
A: reduced the amount of lactose released

Q: And the “lactose released … of inhibitor” value (NanIGH33 [8])?
A: reduced the amount of lactose released

Q: And the “lactose released … of inhibitor” value (NanJGH33 [9])?
A: reduced the amount of lactose released

Q: Which Ki (NanHGH33 [4]) does the source give for `CCOC(=O)C1=C[C@@H](OC(CC)CC)[C@H](NC(C)=O)[C@@H](N)C1` [Oseltamivir, (3R,4R,5S)-4-acetamido-5-amino-3-(1-ethylpropoxy)-1-cyclohexene-1-carboxylic acid ethyl ester] here?
A: > 100 µM

Q: What about the “inhibition of NanHGH33 (in words)” value (NanHGH33 [4]) of the same molecule?
A: did not display any detectable inhibition

Q: What about the Ki (NanIGH33 [5]) of the same molecule?
A: > 100 µM

Q: What about the “inhibition of NanIGH33 (in words)” value (NanIGH33 [5]) of the same molecule?
A: did not display any detectable inhibition

Q: And the Ki (NanJGH33 [6])?
A: > 100 µM

Q: What about the “inhibition of NanJGH33 (in words)” value (NanJGH33 [6]) of the same molecule?
A: did not display any detectable inhibition

Q: How did the Ki (NanHGH33 [4]) turn out when `CC(=O)N[C@H]1NC[C@H](C(=O)O)[C@H](O)[C@@H]1O` [Siastatin B, (3S, 4S, 5R, 6R)-6-(acetylamino)-4,5-dihydroxy-3-piperidinecarboxylic acid] was run?
A: 125 ± 16.2 µM

Q: What about the Ki (NanIGH33 [5]) of the same molecule?
A: 10.7 ± 2 µM

Q: What about the Ki (NanJGH33 [6]) of the same molecule?
A: 13.3 ± 1.6 µM

Q: How did the Km (NanHGH33 [4]; pH 7) turn out when `CC(=O)N[C@H]1[C@H]([C@H](O)[C@H](O)CO)O[C@@](Oc2c[nH]c3ccc(Br)c(Cl)c23)(C(=O)O)C[C@@H]1O` [X-Neu5Ac, 5-bromo-4-chloro-3-indolyl α-D-N-acetylneuraminic acid] was run?
A: 280 ± 62.7 µM

Q: And the kcat (NanHGH33 [4]; pH 7)?
A: 13.3 ± 1.2 s⁻¹

Q: What about the Km (NanIGH33 [5]; pH 6.5) of the same molecule?
A: 123 ± 25.4 µM

Q: What about the Vmax (NanIGH33 [5]; pH 6.5) of the same molecule?
A: 0.09 ± 0.01 µM/s

Q: And the kcat (NanIGH33 [5]; pH 6.5)?
A: 9.2 ± 0.6 s⁻¹

Q: What about the “kcat/Km of NanJGH33 relative to NanHGH33” value (NanJGH33 [6]) of the same molecule?
A: ~3.6 fold

Q: And the “kcat/Km of NanJGH33 relative to NanIGH33” value (NanJGH33 [6])?
A: approximately 2 fold

Q: And the Km (NanJGH33 [6]; pH 6.8)?
A: 87 ± 10.7 µM

Q: What about the kcat (NanJGH33 [6]; pH 6.8) of the same molecule?
A: 15.3 ± 0.6 s⁻¹

Q: Which Ki (NanHGH33 [4]) does the source give for `CC(=O)N[C@H]1[C@H]([C@H](O)[C@H](O)CO)OC(C(=O)O)=C[C@@H]1N=C(N)N` [Zanamivir, 4-guanidino-2,4-dideoxy-2,3-dehydro-N-acetylneuraminic acid] here?
A: > 100 µM

Q: And the “inhibition of NanHGH33 (in words)” value (NanHGH33 [4])?
A: did not display any detectable inhibition

Q: What about the Ki (NanIGH33 [5]) of the same molecule?
A: > 100 µM

Q: What about the “inhibition of NanIGH33 (in words)” value (NanIGH33 [5]) of the same molecule?
A: did not display any detectable inhibition

Q: And the Ki (NanJGH33 [6])?
A: > 100 µM

Q: And the “inhibition of NanJGH33 (in words)” value (NanJGH33 [6])?
A: did not display any detectable inhibition

Source: paper PMC11525138 (The Journal of Biological Chemistry, 2024)
